{"source": "ChEMBL document CHEMBL6096699", "about": "“Tröger's Base as a Potential Bridge to Type-I Photosensitizers: Mechanism and Antitumor Applications” (J Med Chem, 2025)", "key": {"[1]": {"assay": "Dark toxicity in human HBE cells assessed as cell viability incubated for 24 hrs in dark by MTT assay", "format": "cell-based"}, "[2]": {"assay": "Induction of type-1 ROS generation in methanol assessed as generation of OH at 0.5 uM followed by Xe lamp irradiation for 5 mins by DCFH staining based analysis", "format": "functional"}, "[3]": {"assay": "Induction of type-1 ROS generation in tetrahydrofuran assessed as fold increase in DHR123 fluorescence intensity at 0.5 uM followed by LED white light irradiation at 1.8 mWcm/2 for 300 sec by DCFH staining based analysis", "format": "functional"}, "[4]": {"assay": "Photophysical property of the compound assessed as fluorescence quantum yield", "format": "physicochemical"}, "[5]": {"assay": "Induction of type-1 ROS generation in tetrahydrofuran at 0.5 uM followed by LED white light irradiation at 1.8 mWcm/2 for 300 sec by DCFH staining based analysis", "format": "functional"}, "[6]": {"assay": "Induction of type-1 ROS generation in methanol assessed as generation of O2 at 0.5 uM followed by Xe lamp irradiation for 5 mins by DCFH staining based analysis", "format": "functional"}, "MDA-MB-231": {"tested_on": "MDA-MB-231", "assay": "Phototoxicity against human MDA-MB-231 cells assessed as reduction in cell proliferation at 0.156 to 10 uM irradiated with LED light at 1.8 mWcm/2 for 2 hrs and measured after 24 hrs under normoxia condition by MTT assay", "format": "functional, cell-based", "settings": "dose 0.156-10 µM, time 26.0 hrs"}, "MCF7": {"tested_on": "MCF7", "assay": "Phototoxicity against human MCF7 cells assessed as reduction in cell proliferation at 0.156 to 10 uM irradiated with LED light at 1.8 mWcm/2 for 2 hrs and measured after 24 hrs under normoxia condition by MTT assay", "format": "functional, cell-based", "settings": "dose 0.156-10 µM, time 26.0 hrs"}, "A549 [7]": {"tested_on": "A549", "assay": "Induction of intracellular ROS generation in human A549 cells by measuring red fluorescence at 0.4 to 1.2 uM incubated for 24 hrs under dark condition by DHE based fluorescence microscopy analysis", "format": "functional, cell-based", "settings": "dose 0.4-1.2 µM"}, "A549 [8]": {"tested_on": "A549", "assay": "Inhibition of cell migration in human A549 cells assessed as appearance of blurred cells at 0.75 uM preincubated for 12 hrs followed by LED light irradiation 1.8 mW cm/2 for 2 hrs and measured after 48 hrs by wound healing assay", "format": "functional, cell-based", "settings": "time 62.0 hrs"}, "A549 [9]": {"tested_on": "A549", "assay": "Inhibition of cell migration in human A549 cells at 0.75 uM preincubated for 12 hrs followed by LED light irradiation 1.8 mW cm/2 for 2 hrs and measured after 48 hrs by wound healing assay", "format": "functional, cell-based", "settings": "time 62.0 hrs"}, "A549 [10]": {"tested_on": "A549", "assay": "Phototoxicity against human A549 cells assessed as reduction in cell proliferation at 0.156 to 10 uM irradiated with LED light at 1.8 mWcm/2 for 2 hrs and measured after 24 hrs under normoxia condition by MTT assay", "format": "functional, cell-based", "settings": "dose 0.156-10 µM, time 26.0 hrs"}, "A549 [11]": {"tested_on": "A549", "assay": "Induction of intracellular ROS generation in human A549 cells by measuring red fluorescence at 0.4 to 1.2 uM incubated for 24 hrs in presence of LED light irradiation at 1.8 mW cm/2 by DHE based fluorescence microscopy analysis", "format": "functional, cell-based", "settings": "dose 0.4-1.2 µM"}, "A549 [12]": {"tested_on": "A549", "assay": "Inhibition of cell migration in human A549 cells assessed as appearance of loose cells at 0.75 uM preincubated for 12 hrs followed by incubation under dark condition and measured after 48 hrs by wound healing assay", "format": "functional, cell-based", "settings": "time 60.0 hrs"}, "[13]": {"assay": "Developmental toxicity in wild type AB zebrafish assessed as effect on morphological abnormalities at 1.57 to 50 uM incubated for 72 hrs under dark condition", "design": "species or system Danio rerio", "settings": "in vivo, dose 1.57-50 µM"}, "HepG2": {"tested_on": "HepG2", "assay": "Phototoxicity against human HepG2 cells assessed as reduction in cell proliferation at 0.156 to 10 uM irradiated with LED light at 1.8 mWcm/2 for 2 hrs and measured after 24 hrs under normoxia condition by MTT assay", "format": "functional, cell-based", "settings": "dose 0.156-10 µM, time 26.0 hrs"}, "A549 [14]": {"tested_on": "A549", "assay": "Inhibition of cell migration in human A549 cells assessed as appearance of loose cells at 0.75 uM preincubated for 12 hrs followed by LED light irradiation 1.8 mW cm/2 for 2 hrs and measured after 48 hrs by wound healing assay", "format": "functional, cell-based", "settings": "time 62.0 hrs"}, "A549 [15]": {"tested_on": "A549", "assay": "Inhibition of cell migration in human A549 cells assessed as appearance of blurred cells at 0.75 uM preincubated for 12 hrs followed by incubation under dark condition and measured after 48 hrs by wound healing assay", "format": "functional, cell-based", "settings": "time 60.0 hrs"}, "A549 [16]": {"tested_on": "A549", "assay": "Inhibition of cell migration in human A549 cells at 0.75 uM preincubated for 12 hrs followed by incubation under dark condition and measured after 48 hrs by wound healing assay", "format": "functional, cell-based", "settings": "time 60.0 hrs"}, "[17]": {"assay": "Developmental toxicity in wild type AB zebrafish assessed as effect on morphological abnormalities at 1.57 to 50 uM incubated for 72 hrs followed by LED light irradiation at 1.8 mW cm/2", "design": "species or system Danio rerio", "settings": "in vivo, dose 1.57-50 µM"}}, "note": "Active and inactive are the calls of the source. No cut-off for these calls is given here."}
{"smiles": "CN(C)c1ccc2cc(C(=O)/C=C/c3ccc4c(c3)CN3CN4Cc4cc(Br)ccc43)c(=O)oc2c1", "values": [{"measurement": "Activity", "setting": "[1]", "value": "Toxic"}, {"measurement": "Activity", "setting": "[2]", "value": "Active"}, {"measurement": "fold change (FC)", "setting": "[3]", "value": 25.5}, {"measurement": "Fluorescence quantum yield", "setting": "[4]", "value": 0.16}, {"measurement": "Activity", "setting": "[5]", "value": "Active"}, {"measurement": "Activity", "setting": "[6]", "value": "Active"}]}
{"smiles": "CCN(CC)c1ccc2cc(C(=O)/C=C/c3ccc4c(c3)CN3CN4Cc4cc(C=O)ccc43)c(=O)oc2c1", "values": [{"measurement": "Activity", "setting": "MDA-MB-231", "value": "Active"}, {"measurement": "Activity", "setting": "MCF7", "value": "Active"}, {"measurement": "Activity", "setting": "[1]", "value": "Toxic"}, {"measurement": "Activity", "setting": "A549 [7]", "value": "inactive"}, {"measurement": "inhibition", "setting": "A549 [8]", "value": "Active"}, {"measurement": "inhibition", "setting": "A549 [9]", "value": "Active"}, {"measurement": "Activity", "setting": "A549 [10]", "value": "Active"}, {"measurement": "Activity", "setting": "[2]", "value": "Active"}, {"measurement": "Activity", "setting": "A549 [11]", "value": "Active"}, {"measurement": "fold change (FC)", "setting": "[3]", "value": 24.1}, {"measurement": "Fluorescence quantum yield", "setting": "[4]", "value": 0.18}, {"measurement": "inhibition", "setting": "A549 [12]", "value": "Active"}, {"measurement": "Activity", "setting": "[13]", "value": "Non-toxic"}, {"measurement": "Activity", "setting": "HepG2", "value": "Active"}, {"measurement": "inhibition", "setting": "A549 [14]", "value": "Active"}, {"measurement": "Activity", "setting": "[5]", "value": "Active"}, {"measurement": "inhibition", "setting": "A549 [15]", "value": "Active"}, {"measurement": "inhibition", "setting": "A549 [16]", "value": "Active"}, {"measurement": "Activity", "setting": "[6]", "value": "Active"}, {"measurement": "Activity", "setting": "[17]", "value": "Non-toxic"}]}
